Source: patent publication US11090318B2, “Wound healing promoter” (NAHLS CORPORATION CO., LTD., priority 2017, dated 2021)
Structures can show the parent of a compound that is named as a salt.

Legend:
[1] = tested on: Mouse fetus-derived fibroblasts; test: Gene expression in fibroblasts with or without TGF-β (real-time PCR); type: cell-based; conditions: for PDLIM2 gene expression: 10 μg/mL, FIG. 6
Description: Mouse fetus-derived fibroblasts were spread or inoculated in a 10% FCS-containing Dulbecco's modified Eagle medium (DMEM) and cultured for 24 hours. The 10% FCS-containing DMEM was then removed, and a fresh DMEM devoid of FCS was added, followed by cultivation for further 24 hours. Next, the DMEM containing the cells was combined with Nahlsgen or D-AP6 obtained in Preparation Example 1 to a concentration of 10 μg/mL, cultured for 5 hours, further combined with TGF-β, and cultured for further 5 hours. After the cultivation, RNAs or proteins were recovered, and the quantities of MMP3, MMP9, MMP13, FGF, TGF-β, amphiregulin, PDLIM2, and hyaluronic acid (HSA2) were determined using the real-time PCR technique.

[2] = tested on: domestic dog affected by conjunctivitis; test: Eye drops in a domestic dog affected by conjunctivitis; type: in vivo; conditions: antibiotic alone by instillation twice a day for one year or longer, before preparation (6)
Description: The pharmaceutical preparation (6) was administered as drops to the eyes of a domestic dog affected by conjunctivitis, and 30 minutes later an antibiotic (cefmenoxime hydrochloride 0.5%) was administered as drops to the eyes. This process was repeated twice a day for 5 days.
The domestic dog had suffered from signs of dry eye syndrome and often undergone conjunctivitis resulting from bacterial infection.

[3] = 10 μg/mL together with TGF-β, compared with TGF-β alone
[4] = substance added alone, Nahlsgen or D-AP6 10 μg/mL

| Molecule | expression of FGF [1, 3] | expression of MMP3 [1, 3] | expression of MMP9 [1, 3] | expression of MMP13 [1, 3] | expression of TGF-β [1, 3] | expression of amphiregulin [1, 3] | expression of hyaluronic acid [1, 3] | PDLIM2 gene expression [1] | expression of FGF [1, 4] | expression of MMP3 [1, 4] | expression of MMP9 [1, 4] | expression of MMP13 [1, 4] | expression of TGF-β [1, 4] | expression of amphiregulin [1, 4] | expression of hyaluronic acid [1, 4] | curative effects [2] |
| --- | --- | --- | --- | --- | --- | --- | --- | --- | --- | --- | --- | --- | --- | --- | --- | --- |
| N[C@H](CCCCP(=O)(O)O)C(=O)O [D-AP6, D-2-amino-6-phosphonohexanoic acid monohydrate] | significantly increased the expression levels as compared with the addition of TGF-β alone | significantly increased the expression levels as compared with the addition of TGF-β alone | significantly increased the expression levels as compared with the addition of TGF-β alone | significantly increased the expression levels as compared with the addition of TGF-β alone | significantly increased the expression levels as compared with the addition of TGF-β alone | significantly increased the expression levels as compared with the addition of TGF-β alone | significantly increased the expression levels as compared with the addition of TGF-β alone | reduced PDLIM2 gene expression | approximately no change in the expression levels | approximately no change in the expression levels | approximately no change in the expression levels | approximately no change in the expression levels | approximately no change in the expression levels | approximately no change in the expression levels | approximately no change in the expression levels |  |
| COP(=O)(CCC(N)C(=O)O)Oc1cccc(CC(=O)O)c1 (centres unmarked) [Nahlsgen] | significantly increased the expression levels as compared with the addition of TGF-β alone | significantly increased the expression levels as compared with the addition of TGF-β alone | significantly increased the expression levels as compared with the addition of TGF-β alone | significantly increased the expression levels as compared with the addition of TGF-β alone | significantly increased the expression levels as compared with the addition of TGF-β alone | significantly increased the expression levels as compared with the addition of TGF-β alone | significantly increased the expression levels as compared with the addition of TGF-β alone | reduced PDLIM2 gene expression | approximately no change in the expression levels | approximately no change in the expression levels | approximately no change in the expression levels | approximately no change in the expression levels | approximately no change in the expression levels | approximately no change in the expression levels | approximately no change in the expression levels |  |
| CO/N=C(\C(=O)N[C@@H]1C(=O)N2C(C(=O)O)=C(CSc3nnnn3C)CS[C@H]12)c1csc(N)n1 [antibiotic, cefmenoxime hydrochloride] |  |  |  |  |  |  |  |  |  |  |  |  |  |  |  | failed to enjoy curative effects |
| TGF-β [reference compound] |  |  |  |  |  |  |  |  | increased the expression | increased the expression | increased the expression | increased the expression | increased the expression | increased the expression | increased the expression |  |
